Source: US7968575B2, “Nitric oxide donors and uses thereof” (priority 2004, dated 2011)

Assays:
[1] = tested on: c-GMP; test: Induction of in vivo nitrate tolerance (cGMP in aorta isolated after 16 hour infusion); set-up: species or system rat; conditions: in words
Method: For c-GMP levels and tolerance development, the rat's thoracic aorta was isolated after exposure to the tested compound in vivo, and measured as described above in the in vitro assays.
Male Sprague Dawley rats (220 to 250 grams) were housed under constant temperature and humidity conditions. Light was maintained at a 12/12 light dark cycle. Except for 12 hours before the experiment, when food fasting was initiated, all rats had free access to standard rat pellet diet and tap water. The animals were anesthetized by intraperitoneal injection of ketamine and xylazine combination (50 and 10 milligram per kilogram, respectively). […] The catheters were filled with normal saline solution containing 1000 IU/ml of heparin and plugged with a metal pin. Catheters were externalized to the back of the neck region and secured by a polyester felt disk.
After implantation, the rats were individually housed until they regained their preoperative weight and appeared healthy (3 to 4 days post-operation). At this time point (day 0), an osmotic mini-pump (Alza Corp., Palo Alto, Calif.) delivering constant volume (10 μl/hour) of vehicle or drug was connected to one of the intravenous catheters.
For inducing tolerance to the tested NO-donor according to the present invention, the animals received 200 μg/hour of the tested compound for 16 hours (short-term-induced tolerance). A similar number of animals were processed by the same surgical procedure and received the vehicle alone (10 μl/hour of a solution consisting of 30% ethanol and 30% propylene glycol in sterile distilled water for injection).
At the end of the infusion periods used for the development of tolerance (16 hour), the rats were anesthetized as described above, the two catheters were externalized and the delivering catheters were disconnected from the mini-pump. The abdomen was opened by midline incision and the thoracic aorta were isolated, washed and cleaned from the surrounding tissues. Strips of the treated aortas were pooled in chambers containing Krebs-Hanseliet buffer (10 ml), and exposed to 1 μM of the tested NO-donor (final concentration) for 120 seconds. The tissues were quickly collected and frozen in liquid nitrogen for cGMP measurement, described hereinabove.

[2] = tested on: c-GMP; test: Cyclic-GMP measurement in aortic rat tissue (radioimmunoassay); type: cell-based; conditions: rat thoracic aorta, summary of Table 5; in words
Method: GTN (10^−6 M) was added to the chamber and, 1 minute after exposure to the drug, rings (usually 3-5) were taken, wrapped with aluminum foil and immediately frozen in liquid nitrogen for storage. Control sample group was treated with the vehicle solution only. At the time of analysis, rings were thawed, blotted over a dry gauzed and weighted. A known weight of tissue was homogenized in 2 ml ice-cold modified Hank's balanced salt solution containing (in gram/liter) NaCl 8; KCl 0.4; glucose 1; KH2PO4 0.06; Na2HPO4 0.047; Phenol red 0.017 and further containing 25 mM EDTA (disodium salt). The homogenate was centrifuged at 4000 g (force units) for 10 minutes at 2-4° C. and the supernatant was thereafter transferred into fresh pre-cooled test tube containing 1 ml of acetonitrile. The tubes were vortex mixed for a few seconds and subsequently centrifuged at 4000 g for 5 minutes at 2-4° C., to remove the precipitated protein. Each supernatant was transferred into a clean test tube and evaporated to dryness under a stream of nitrogen at 55° C. The dry residue was reconstituted with 10 volumes of Tris-EDTA buffer pH 7.5 (0.05 M Tris containing 4 mM EDTA). Aliquots of 100 μl of the reconstituted solution in duplicate were used for c-GMP measurements using Amersham RIA kit, as is described in Haj-Yehia & Benet [Pharmacology, 1995, 273, 1, pp. 94-100]. Standard curves were plotted with six concentrations (0, 0.5, 1, 2, 4 and 8 pmoles of c-GMP per tube).
The NO-tolerance effect of GTN and NO-donor compounds according to the present invention was measured by following the production of c-GMP in slices of thoracic aorta of rats. Thus, the production of c-GMP was measured as described in the methods section above for the reference NO-donor compound GTN, and for the NO-donors of the present invention Pet-2, Pet-3, Pet-7, Pet-8, Pet-10, Pet-12, Pet-24, Pet-59, Pet-147, Pet-149, Pet-152, Pet-154 and Pet-155.

[3] = tested on: isolated rat aorta; test: In vitro induction of tolerance: vasorelaxation of aortic rings pre-exposed to the NO-releasing compound; type: cell-based; conditions: vasorelaxation in rings pre-treated with 0.44 mM of the compound versus control rings; in words
Method: Aortic rings were prepared as described hereinabove, and were exposed to 0.44 mM GTN (vehicle was water:ethanol:propyleneglycol at proportional ratio of 1:1:1) for 1 hour before CCRC construction, to thereby induce tolerance to nitroglycerine. At the end of the tolerance induction period, rings were thrice washed with the path buffer (Krebs-bicrbonate) every 15 minutes for the following hour and then CCRC for vasorelaxation on GTN-induced tolerance rings were constructed for GTN (pretreated versus untreated rings, FIG. 15), in order to verify the ability to induce and measure GTN tolerance induction in vitro
Attempted induction of tolerance to the NO-donating compounds of the present invention was performed under the same conditions as for GTN. Thus, in an exemplary experiment, rings were exposed to 0.44 mM solution of Pet-3 in the attempt to induce tolerance for Pet-3. CCRC were then measured for the vasorelaxing effect of Pet-3 on a group of rings which were pre-exposed to Pet-3 as to induce tolerance to Pet-3, and for an untreated control group. The above protocol was repeated with Pet-2, Pet-7, Pet-8, Pet-12, Pet-24, Pet-43, Pet-149 and Pet-152.

[4] = tested on: anesthetized hypertensive Sprague-Dawley male rats; test: Hypotensive effects: mean arterial pressure after iv bolus; type: in vivo, rat; conditions: rats pre-treated with phenylephrine, iv bolus doses; in words
Method: Mean arterial pressure (MAP) was monitored and determined during bolus infusion of Pet-2, Pet-3, Pet-7, Pet-8, Pet-12 and Pet-13. Briefly, polyethylene catheters (PE50) were inserted into the carotid artery and into the jugular vein of anesthetized hypertensive Sprague-Dawley male rats (200-300 grams). A blood pressure recorder was placed within the carotid artery. Phenylephrine (0.1 mg) was then injected and the mean arterial blood pressure (MABP) was monitored continuously until a stable baseline was reached. The hypotensive effects of intravenous (iv) bolus doses (0.1 mg of each tested compound) administered intravenously at the jugular vein in minimal volume of vehicle (0.2 ml per dose) were evaluated. Five minutes were allowed between each dose, during which the maximal decrease in MAP was recorded and a dose-response graph comparing the hypotensive effect of the compounds was constructed.

## O=[N+]([O-])OCC(CO[N+](=O)[O-])O[N+](=O)[O-] [GTN, glyceryl trinitrate, reference compound]
[1]; aorta of rats infused 200 μg/hour for 16 hours, then exposed to 1 μM compound for 120 seconds
  level of cGMP following a repeated treatment in vivo: decreased
[1]; cGMP accumulation in isolated aorta of rats pre-treated in vivo with the compound
  tolerance induction in vivo: tolerance inducing effect
[2]
  c-GMP level following a repeated treatment: significantly reduced
[3]
  tolerance induction in vitro: tolerance induced
[4]
  hypotensive effect on MAP following successive administrations: attenuation
